# Tested on: human colorectal adenocarcinoma cells (DLD-1)
# Test: MTT proliferation assay, DLD-1 (Examples 1-2)
# Format: cell-based
# Experimental: (§1) Test samples shown below in Table 2 were assessed for their ability to modulate the viability and proliferation of human colorectal adenocarcinoma cells (DLD-1) as assessed by the MTT assay. A positive control, 5-fluorouracil (5-FU) was included in addition to an unsupplemented cell control (negative control) in the study. The test samples were obtained by fractionation of propolis tincture.
# as §1, with “study.” for “study. The test samples were obtained by fractionation of propolis tincture.”
# Human colorectal adenocarcinoma epithelial cell lines were revived from cryostorage and cultured in the presence of the test and reference samples. The culture conditions for the cells were those described by the supplier of the cells (ATCC). An MTT assay was then performed on the cultures to determine the effect of the samples on the cell proliferation.
# Working solutions were prepared by dissolving the test fractions in 15% ethanol (ETOH)/HBSS to a concentration of 2 mg/mL solids.
# • 1. Human colorectal adenocarcinoma cells (ATCC CCI-221, DLD-1). • 2. Penicillin-streptomycin solution: 10000 units/mL penicillin, 10 mg/mL streptomycin in 0.9% NaCl (Sigma Cat #P-0781). Stored at −20° C. • 3. DMEM culture medium (Invitrogen Cat #12100-046) Stored at −20° C. • 4. Trypsin-EDTA solution: 0.25% Trypsin/EDTA, Invitrogen Cat#15400054 (×10 in stock). • 5. Phosphate buffered saline (PBS) (Prepared by TBL). • 6. Hanks Balanced Salt Solution (HBSS). (GIBCO Cat No. 14185-052). Stored at 4° C. • 7. Foetal Bovine Serum (GIBCO Cat #10091-148). Stored at −20° C. • 8. MTT Reagent: 100 mg/vial, (SIGMA Cat. No. M-2128) dissolved in PBS at 10 mg/mL and stored at −20° C. 5 mg/mL MTT solution were prepared in PBS and stored at 4° C. as working solution. • 9. MTT lysis buffer: 10% sodium dodecyl sulphate (SDS)/45% Dimethyl Formamide (20 g SDS was dissolved in 100 mL of double-distilled water (DDW), and 90 mL of Dimethyl Formamide added to the SDS solution). The pH was adjusted to 4.7 by glacial acetic acid, and DDW added up to a final volume of 200 mL. • 10. 5-Fluorouracil (5-FU), (Sigma Cat. No. F-6627). Two working solutions were prepared at 150 ng/mL and 75 ng/mL, dissolved in 15% Ethanol/HBSS. Final concentrations were 7.50 ng/mL and 3.75 ng/mL.
# The medium for the propagation of the colorectal adenocarcinoma (DLD-1) cells was DMEM, supplemented with penicillin-streptomycin solution (10 mL per litre). FBS was added just before use to give 10% w/v.
# • 1. The human colorectal adenocarcinoma cells (DLD-1) obtained from the American Type Culture Collection USA were revived from cryostorage. • 2. Following initial propagation using the media described above (see Medium Preparation), the culture was subcultured using the trypsin-EDTA as follows. The media was removed and 5 mL of the trypsin-EDTA solution added and incubated at 37° C. for 5 min or until all the cells had detached. The trypsin was neutralised by adding an equal volume of DMEM medium and the culture centrifuged at 300 g (1200 rpm) for 5 min at 4° C. • 3. The supernatant was decanted and the cell pellets resuspended in medium DMEM, FBS (10%), penicillin (100 units/mL), streptomycin (100 μg/mL). The cells were cultured at 37° C. in 5% CO2/95% air. • 4. After reaching confluence, the cells were detached using trypsin-EDTA and centrifuged as described in 2 above. • 5. The supernatants were discarded and the cells resuspended in DMEM and supplements as described in 3 above at 1.0×10^4 cells per mL. • 6. Into each well of three 96 well plates, 180 μl of the cells (1,800 cells/well) or medium was added. The plates were incubated at 5% CO2/95% air at 37° C. for 48 h which was sufficient to allow the cells to adhere. • 7. To each well, 20 μl of each, of the test samples or positive control was added. […]
# [1] = Example 2, DLD-1, sample 200 μg/mL, 24 hours incubation
compound,measurement,setting,value
"O=C1C[C@@H](c2ccccc2)Oc2cc(O)cc(O)c21 [Pinocembrin, reference compound]",Mean OD (570 nm),[1],0.0196
same,inhibition at 200 µg/mL,"Homo sapiens, Example 2, DLD-1, sample 200 μg/mL, 24 hours incubation",94%
"O=c1[nH]cc(F)c(=O)[nH]1 [Sample 5-FU, 5-fluorouracil, reference compound]",Mean OD (570 nm),"Example 1, DLD-1, 5-FU 7.50 ng/ml",0.657
same,inhibition at 0.0075 µg/mL,"Homo sapiens, Example 1, DLD-1, 5-FU 7.50 ng/ml",6.69%
"COc1cc(O)c2c(=O)cc(-c3ccccc3)oc2c1 [Tectochrysin, tectochrysin]",% inhibition,[1],29.45%
same,Mean OD (570 nm),[1],0.2285
"O=C(O)/C=C/c1ccc(O)cc1 [p-coumaric acid, para-coumaric acid, reference compound]",activity against DLD-1,"isolated from NZ propolis, data not shown in Example 2",inactive

# Reference: patent publication US20160030364A1, “Therapeutic Compositions and Uses Thereof” (MANUKA HEALTH NEW ZEALAND LIMITED, priority 2013, published 2016)
